The results in this text go back to patent US10927123B2, “Modulators of the beta-3 adrenergic receptor useful for the treatment or prevention of disorders related thereto” (Arena Pharmaceuticals, Inc., priority 2016, dated 2021).

This experiment addresses Beta-3 Adrenergic Receptor (Homo sapiens (Human), UniProt P13945). In words: HTRF cAMP antagonist assay (IC50 determination). The experiment is classed as cell-based. The conditions noted are these: CHO-K1 cells stably expressing recombinant receptor; antagonism of isoproterenol at EC90; cAMP readout. The gist of the method:
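CHO-K1 cells stably expressing the recombinant receptor were preincubated with compound (10-point, 5-fold dilutions; top final typically 10 or 100 μM) in PBS with 1 mM IBMX, then stimulated with isoproterenol at its EC90 for 1 h at room temperature. cAMP was read by HTRF against an on-plate standard curve.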
A general note: Time-resolved FRET reads energy transfer from a long-lived donor to a nearby acceptor.

Usually IC50 stands for the point on the concentration scale where inhibition reaches its midpoint.

Chain of Beta-3 Adrenergic Receptor (P13945 whole entry, species assumed): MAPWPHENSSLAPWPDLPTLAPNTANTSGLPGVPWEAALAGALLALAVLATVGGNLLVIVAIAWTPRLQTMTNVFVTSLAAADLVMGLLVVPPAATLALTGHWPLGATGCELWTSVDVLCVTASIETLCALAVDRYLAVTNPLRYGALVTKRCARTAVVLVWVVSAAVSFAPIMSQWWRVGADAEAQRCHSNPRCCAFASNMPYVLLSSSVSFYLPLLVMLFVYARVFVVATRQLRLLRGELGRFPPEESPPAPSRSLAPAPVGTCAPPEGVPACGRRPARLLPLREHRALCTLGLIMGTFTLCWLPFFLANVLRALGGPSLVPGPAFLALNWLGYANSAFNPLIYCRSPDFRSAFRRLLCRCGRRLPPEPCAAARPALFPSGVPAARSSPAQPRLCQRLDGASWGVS

With `O=S(=O)(c1cccc(OC[C@@H](O)CN[C@H]2COC3(CCN(S(=O)(=O)c4cnc5c(c4)CCCC5)CC3)C2)c1)C1CC1` [Compound 282, (S)-1-(3-(cyclopropylsulfonyl)phenoxy)-3-((R)-8-(5,6,7,8-tetrahydroquinolin-3-ylsulfonyl)-1-oxa-8-azaspiro[4.5]decan-3-ylamino)propan-2-ol], the IC50 was 23.7 nM.

Take `C[C@@H]1CN(C)c2cc(S(=O)(=O)N3CCC4(CC3)C[C@@H](NC[C@H](O)COc3cccc(S(=O)(=O)C5(CO)CC5)c3)CO4)cnc2O1` [Compound 283, (S)-1-((R)-8-((R)-1,3-dimethyl-2,3-dihydro-1H-pyrido[2,3-b][1,4]oxazin-7-ylsulfonyl)-1-oxa-8-azaspiro[4.5]decan-3-ylamino)-3-(3-(1-(hydroxymethyl)cyclopropylsulfonyl)phenoxy)propan-2-ol]: the IC50 stood at 68.9 nM. For `O=S(=O)(c1cnc2c(c1)CCCO2)N1CCC2(CC1)C[C@@H](NC[C@H](O)COc1cccc(S(=O)(=O)C3(CO)CC3)c1)CO2` [Compound 284, (S)-1-((R)-8-(3,4-dihydro-2H-pyrano[2,3-b]pyridin-6-ylsulfonyl)-1-oxa-8-azaspiro[4.5]decan-3-ylamino)-3-(3-(1-(hydroxymethyl)cyclopropylsulfonyl)phenoxy)propan-2-ol] the value was 106 nM. For `O=S(=O)(c1cnc2c(c1)OCCO2)N1CCC2(CC1)C[C@@H](NC[C@H](O)COc1cccc(S(=O)(=O)C3(CO)CC3)c1)CO2` [Compound 285, (S)-1-((R)-8-(2,3-dihydro-[1,4]dioxino[2,3-b]pyridin-7-ylsulfonyl)-1-oxa-8-azaspiro[4.5]decan-3-ylamino)-3-(3-(1-(hydroxymethyl)cyclopropylsulfonyl)phenoxy)propan-2-ol] the value was 303 nM; for `CN1CCOc2cc(S(=O)(=O)N3CCC4(CC3)C[C@@H](NC[C@H](O)COc3cccc(S(=O)(=O)C5(CO)CC5)c3)CO4)cnc21` [Compound 286, (S)-1-(3-(1-(hydroxymethyl)cyclopropylsulfonyl)phenoxy)-3-((R)-8-(4-methyl-3,4-dihydro-2H-pyrido[3,2-b][1,4]oxazin-7-ylsulfonyl)-1-oxa-8-azaspiro[4.5]decan-3-ylamino)propan-2-ol], 56.9 nM.

In the case of `Cn1cnc2ccc(S(=O)(=O)N3CCC4(CC3)C[C@@H](NC[C@H](O)COc3cccc(S(=O)(=O)C5(CO)CC5)c3)CO4)nc21` [Compound 287, (S)-1-(3-(1-(hydroxymethyl)cyclopropylsulfonyl)phenoxy)-3-((R)-8-(3-methyl-3H-imidazo[4,5-b]pyridin-5-ylsulfonyl)-1-oxa-8-azaspiro[4.5]decan-3-ylamino)propan-2-ol], the concentration for half-maximal inhibition (IC50) came to 151 nM. Next, `CN1CC(C)(C)Oc2nc(S(=O)(=O)N3CCC4(CC3)C[C@@H](NC[C@H](O)COc3cccc(S(=O)(=O)C5(CO)CC5)c3)CO4)ccc21` [Compound 288, (S)-1-(3-(1-(hydroxymethyl)cyclopropylsulfonyl)phenoxy)-3-((R)-8-(1,3,3-trimethyl-2,3-dihydro-1H-pyrido[2,3-b][1,4]oxazin-6-ylsulfonyl)-1-oxa-8-azaspiro[4.5]decan-3-ylamino)propan-2-ol]: 177 nM.

As for `O=S(=O)(c1cccc(OC[C@@H](O)CN[C@H]2COC3(CCN(S(=O)(=O)c4cnc5c(c4)OCCO5)CC3)C2)c1)C1CC1` [Compound 289, (S)-1-(3-(cyclopropylsulfonyl)phenoxy)-3-((R)-8-(2,3-dihydro-[1,4]dioxino[2,3-b]pyridin-7-ylsulfonyl)-1-oxa-8-azaspiro[4.5]decan-3-ylamino)propan-2-ol], the half-maximal inhibitory concentration (IC50) was 65.8 nM. For `CN1CCOc2cc(S(=O)(=O)N3CCC4(CC3)C[C@@H](NC[C@H](O)COc3cccc(S(=O)(=O)C5CC5)c3)CO4)cnc21` [Compound 290, (S)-1-(3-(cyclopropylsulfonyl)phenoxy)-3-((R)-8-(4-methyl-3,4-dihydro-2H-pyrido[3,2-b][1,4]oxazin-7-ylsulfonyl)-1-oxa-8-azaspiro[4.5]decan-3-ylamino)propan-2-ol] the value was 34.2 nM.
